ChEMBL document CHEMBL1201862, “PubChem BioAssay data set” (2004)
Active and inactive are the calls of the source.

Experiments:
Protein skinhead-1 = target: T1, Protein skinhead-1 (Caenorhabditis elegans, UniProt P34707); format: functional
T1 sequence (P34707 whole entry): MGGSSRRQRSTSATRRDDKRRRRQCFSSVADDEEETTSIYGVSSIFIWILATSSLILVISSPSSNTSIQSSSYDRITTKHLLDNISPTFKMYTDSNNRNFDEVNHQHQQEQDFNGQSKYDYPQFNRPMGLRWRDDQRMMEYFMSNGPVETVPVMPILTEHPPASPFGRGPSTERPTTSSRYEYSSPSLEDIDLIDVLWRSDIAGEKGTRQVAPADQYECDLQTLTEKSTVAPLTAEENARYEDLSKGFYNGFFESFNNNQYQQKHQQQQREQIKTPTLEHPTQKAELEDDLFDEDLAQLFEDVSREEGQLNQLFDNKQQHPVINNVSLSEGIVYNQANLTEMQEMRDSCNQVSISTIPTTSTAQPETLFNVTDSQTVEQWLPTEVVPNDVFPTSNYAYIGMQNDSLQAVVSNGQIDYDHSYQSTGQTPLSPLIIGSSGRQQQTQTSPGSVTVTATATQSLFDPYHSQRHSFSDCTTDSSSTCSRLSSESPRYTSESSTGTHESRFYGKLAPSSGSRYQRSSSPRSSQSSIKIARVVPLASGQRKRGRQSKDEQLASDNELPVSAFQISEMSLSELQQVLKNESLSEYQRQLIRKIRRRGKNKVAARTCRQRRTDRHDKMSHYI

[1] = target: T2, Replicative DNA helicase DnaB (Mycobacterium tuberculosis, UniProt P9WMR3); assay: DnaB intein splicing inhibitors, dose response, biochemical, cell-free fluorescence (AID 449749); format: functional
T2 sequence (P9WMR3 whole entry): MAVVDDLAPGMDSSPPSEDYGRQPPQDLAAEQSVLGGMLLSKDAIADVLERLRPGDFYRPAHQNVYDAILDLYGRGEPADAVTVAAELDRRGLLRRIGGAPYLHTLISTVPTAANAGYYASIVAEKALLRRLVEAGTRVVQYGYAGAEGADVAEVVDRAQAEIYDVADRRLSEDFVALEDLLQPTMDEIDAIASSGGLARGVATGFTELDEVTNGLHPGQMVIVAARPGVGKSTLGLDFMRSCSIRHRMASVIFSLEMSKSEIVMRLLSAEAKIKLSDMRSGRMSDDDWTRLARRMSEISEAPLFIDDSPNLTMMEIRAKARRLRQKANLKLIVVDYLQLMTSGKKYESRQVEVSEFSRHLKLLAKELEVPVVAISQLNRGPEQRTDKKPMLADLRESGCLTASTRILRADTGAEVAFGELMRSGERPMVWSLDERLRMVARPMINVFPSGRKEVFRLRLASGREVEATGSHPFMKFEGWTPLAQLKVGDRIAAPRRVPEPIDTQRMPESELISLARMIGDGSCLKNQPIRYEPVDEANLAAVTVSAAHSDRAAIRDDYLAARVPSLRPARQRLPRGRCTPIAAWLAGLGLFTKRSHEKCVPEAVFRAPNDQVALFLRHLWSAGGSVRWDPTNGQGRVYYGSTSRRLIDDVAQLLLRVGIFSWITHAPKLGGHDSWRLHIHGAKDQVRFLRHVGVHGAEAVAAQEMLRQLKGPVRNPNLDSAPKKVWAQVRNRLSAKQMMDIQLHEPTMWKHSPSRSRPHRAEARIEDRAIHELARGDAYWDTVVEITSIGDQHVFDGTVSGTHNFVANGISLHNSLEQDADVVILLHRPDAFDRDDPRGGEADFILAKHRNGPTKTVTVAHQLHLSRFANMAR

Protein RecA = target: T3, Protein RecA (Mycobacterium tuberculosis, UniProt P9WHJ3); assay: Fluorescence Cell-Free Homogeneous Dose Retest to Identify Inhibitors of RecA-Intein Splicing Activity. [Related pubchem assays (depositor defined):AID2097, AID2223, AID489010, AID492950]; format: functional
T3 sequence (P9WHJ3 whole entry): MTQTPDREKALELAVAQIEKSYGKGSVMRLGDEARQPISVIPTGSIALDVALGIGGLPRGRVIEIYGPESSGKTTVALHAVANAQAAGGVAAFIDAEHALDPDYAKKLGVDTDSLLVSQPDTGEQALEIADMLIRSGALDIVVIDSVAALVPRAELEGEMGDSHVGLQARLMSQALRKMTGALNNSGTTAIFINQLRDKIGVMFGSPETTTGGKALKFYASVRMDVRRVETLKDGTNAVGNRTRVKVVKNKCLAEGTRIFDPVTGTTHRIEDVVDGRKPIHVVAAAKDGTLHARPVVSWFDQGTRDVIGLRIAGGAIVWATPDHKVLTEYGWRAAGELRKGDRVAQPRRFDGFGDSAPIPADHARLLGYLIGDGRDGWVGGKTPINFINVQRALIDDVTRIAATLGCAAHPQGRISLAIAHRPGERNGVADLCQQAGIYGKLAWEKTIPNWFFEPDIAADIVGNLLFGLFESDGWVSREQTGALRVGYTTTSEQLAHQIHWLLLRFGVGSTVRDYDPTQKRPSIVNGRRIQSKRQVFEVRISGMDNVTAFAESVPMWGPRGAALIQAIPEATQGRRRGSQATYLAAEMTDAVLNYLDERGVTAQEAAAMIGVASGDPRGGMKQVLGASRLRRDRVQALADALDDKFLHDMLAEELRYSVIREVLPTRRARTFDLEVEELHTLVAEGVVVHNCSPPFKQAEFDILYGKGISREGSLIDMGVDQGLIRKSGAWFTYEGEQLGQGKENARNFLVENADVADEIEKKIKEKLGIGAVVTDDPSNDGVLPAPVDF

[2] = target: T4, Heat shock factor protein 1 (Mus musculus, UniProt P38532); assay: inhibition of MG132-induced HSE-luciferase signal, confirmation, cell-based, NIH3T3, luminescence, dose retest (AID 2382); format: functional;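 note: NIH3T3 fibroblasts with HSF1-driven luciferase reporter stressed by proteasome inhibitor MG132; luminescence from HSF1-driven luciferase expression after 8 hours of MG132 stress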
T4 sequence (P38532 whole entry): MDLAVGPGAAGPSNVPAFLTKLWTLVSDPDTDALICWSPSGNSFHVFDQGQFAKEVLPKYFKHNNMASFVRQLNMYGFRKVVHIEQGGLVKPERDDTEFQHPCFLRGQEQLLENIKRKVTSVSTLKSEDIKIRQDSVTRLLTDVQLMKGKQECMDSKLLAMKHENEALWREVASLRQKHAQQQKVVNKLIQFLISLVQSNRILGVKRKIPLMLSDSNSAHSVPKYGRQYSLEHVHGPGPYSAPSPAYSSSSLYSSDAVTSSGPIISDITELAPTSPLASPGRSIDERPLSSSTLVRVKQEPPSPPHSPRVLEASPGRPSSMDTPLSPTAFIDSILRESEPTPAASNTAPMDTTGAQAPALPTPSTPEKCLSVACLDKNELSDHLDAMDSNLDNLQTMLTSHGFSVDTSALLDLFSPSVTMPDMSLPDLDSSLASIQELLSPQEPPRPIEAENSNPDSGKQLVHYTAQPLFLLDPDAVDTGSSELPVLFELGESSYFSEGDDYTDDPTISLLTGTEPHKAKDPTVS

[3] = Luminescence Cell-Based Dose Retest to Confirm Inhibitors of Cancer Stem Cells. [Related pubchem assays (depositor defined):AID2717, AID2721]; format: functional; details: Homo sapiens
[4] = inhibitors of firefly luciferase expression or activity, dose response, H4 neuroglioma cells, luminescence (AID 1990); format: functional, cell-based
[5] = inhibitors of SNCA 5'UTR-driven reporter translation, confirmation, H4 neuroglioma cells, luminescence (AID 1988); format: functional, cell-based
[6] = HEp-2 cell cytotoxicity, dose response, cytotoxicity control for RSV inhibitor project, HTS (AID 2410); format: functional; details: human respiratory syncytial virus
[7] = target: T5, Calpain-2 catalytic subunit (Sus scrofa, UniProt P43367); assay: pig calpain II inhibitor potency, dose response, biochemical, fluorogenic peptide substrate (AID 1420); format: functional
T5 sequence (P43367 whole entry): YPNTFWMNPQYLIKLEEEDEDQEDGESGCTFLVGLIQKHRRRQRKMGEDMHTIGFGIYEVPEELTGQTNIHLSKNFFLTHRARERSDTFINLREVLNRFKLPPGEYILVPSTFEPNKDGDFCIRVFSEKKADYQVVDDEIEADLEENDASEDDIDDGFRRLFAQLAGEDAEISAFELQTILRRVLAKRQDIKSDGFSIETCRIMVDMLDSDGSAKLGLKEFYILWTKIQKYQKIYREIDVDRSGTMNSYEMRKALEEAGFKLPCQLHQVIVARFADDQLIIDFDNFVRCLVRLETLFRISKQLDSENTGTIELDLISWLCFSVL

Cytochrome P450 3A4 = Cytochrome P450 3A4 (Homo sapiens, UniProt P08684);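 note: CYP3A4 tested as one member of a cytochrome P450 panel screen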
[8] = Shn3 3'UTR reporter inhibitors, dose response, cell-based, Clone20 osteoblasts, firefly luciferase, cherry-picked (AID 624132); format: functional;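 note: firefly luciferase luminescence from reporter carrying the Shn3 3'UTR in osteoblasts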

Cytochrome P450 3A4, sequence (P08684 whole entry): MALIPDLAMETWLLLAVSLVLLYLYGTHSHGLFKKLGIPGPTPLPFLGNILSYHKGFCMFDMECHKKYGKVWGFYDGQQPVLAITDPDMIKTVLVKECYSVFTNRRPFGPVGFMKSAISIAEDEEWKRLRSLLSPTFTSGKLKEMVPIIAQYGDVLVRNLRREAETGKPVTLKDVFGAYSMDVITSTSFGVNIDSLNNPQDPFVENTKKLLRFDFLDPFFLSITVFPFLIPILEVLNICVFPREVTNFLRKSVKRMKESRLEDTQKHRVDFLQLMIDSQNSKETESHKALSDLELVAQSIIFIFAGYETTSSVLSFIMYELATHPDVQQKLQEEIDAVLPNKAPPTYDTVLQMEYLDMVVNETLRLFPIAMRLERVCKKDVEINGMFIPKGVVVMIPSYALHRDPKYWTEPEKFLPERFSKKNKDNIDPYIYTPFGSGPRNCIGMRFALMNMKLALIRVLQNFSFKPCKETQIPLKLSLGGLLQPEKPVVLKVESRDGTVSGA

Structure (SMILES)	IC50 (Protein skinhead-1)	AC50 [1]	EC50 (Protein RecA)	other results
O=C(Nc1ccc(-c2noc(CCc3ccccc3)n2)cc1)c1ccco1	> 100 µM (inactive)	–	–	–
CC(Oc1ccc(F)cc1)C(=O)Oc1ccc(N(C)S(=O)(=O)c2ccccc2)cc1 (stereo not drawn)	–	0.725 µM (active)	58.5 µM (active)	–
Fc1ccccc1/C=C/c1ccc2ccccc2n1	19.2 µM (active)	–	–	–
Cn1cc([C@@H]2C[C@H]3CN(Cc4cccc(Cl)c4)C(=O)[C@]34CCCN24)c2ccccc21	> 100 µM (inactive)	–	–	–
CCOC(=O)c1ccc(-n2[nH]c(-c3ccccc3)cc2=O)cc1	–	3.43 µM (active)	2.25 µM (active)	EC50 [2]: > 195 µM (not active); AC50 [3]: 5.35 µM (active)
CCOC(=O)CN1CC23C=CC(O2)C(C(=O)NCc2cccs2)C3C1=O (stereo not drawn)	> 100 µM (inactive)	–	–	–
COc1ccc(NC(=O)c2cccc(N3C(=O)c4ccc(C(=O)Nc5ccc(OC)c(O)c5)cc4C3=O)c2)cc1O	–	–	–	EC50 [4]: 15 µM (active); EC50 [5]: 13.4 µM (active)
CC1CCCCN1S(=O)(=O)c1ccc(C(=O)Nc2sccc2C(N)=O)cc1 (stereo not drawn)	> 100 µM (inactive)	–	–	CC50 [6]: 19.2 µM (active); EC50 [2]: > 195 µM (not active)
COc1nc(-c2ccccc2)nnc1-c1ccccc1	23 µM (active)	–	–	–
O=[N+]([O-])c1ccc(NCc2ccc(Cl)cc2)nc1	32.1 µM (active)	–	–	IC50 [7]: 12.6 µM (not active)
CCCCOC(=O)Nc1ccc(N2CCCCC2)cc1	10.6 µM (active)	–	–	–
CCCNC(=O)CCn1nc(-c2ccc(Cl)cc2)c2ccccc2c1=O	–	–	–	EC50 [4]: 18.5 µM (active); EC50 [5]: > 120 µM (not active)
CCOC(=O)c1cnc(N)nc1C(F)(F)F	–	> 380 µM (inactive)	> 380 µM (inactive)	–
COC(=O)c1c(NC(=O)c2ccco2)sc2c1CCC2	> 100 µM (inactive)	–	–	AC50 [3]: 68.2 µM (active); AC50 (Cytochrome P450 3A4): 39.8 µM (inconclusive)
c1ccc(CSc2ncnc3ccccc23)cc1	36.1 µM (active)	–	–	–
CC(C)c1n[nH]c2c1C1(CCN(Cc3ccccc3)CC1)C(C#N)=C(N)O2	–	53.5 µM (active)	1.16 µM (active)	–
CCCOC(=O)c1cc(O)nc2ccccc12	> 100 µM (inactive)	–	–	–
CC(C)CS(=O)(=O)C1=NSC2=NC(=O)/C(=C\c3ccc(OC(=O)c4ccco4)cc3)C(=N)N21	–	> 380 µM (inactive)	13.8 µM (active)	–
Cc1cccc(C(=O)c2cnc3ccccc3c2-c2ccccc2)c1	–	4.79 µM (active)	22.8 µM (active)	–
CCc1n[nH]c2c1C1(CCN(C(=O)c3ccccc3)CC1)C(C#N)=C(N)O2	–	24.6 µM (active)	4.3 µM (active)	–
Cc1nc2ccccc2c2c1C(=O)N(c1cccc(C(=O)O)c1)C2=O	–	37 µM (active)	17 µM (active)	–
CCN1CCN(Cc2ccc(NC(=O)c3cc(NC(=O)c4cc5cccc(OC)c5o4)cc(OC)c3)cc2C(F)(F)F)CC1	–	–	–	AC50 [8]: 10.2 µM (active)
Cc1cc(C)c2c(c1)-c1c(ssc1=S)C(C)(C)N2C(=O)CSc1nncn1C	–	5.32 µM (active)	8.17 µM (active)	–
O=[N+]([O-])c1cccc2ccc(/C=C/c3ccc(Cl)cc3)nc12	> 100 µM (inactive)	–	–	CC50 [6]: 20 µM (active)
